Measurements from US20030055073A1, “Remedies for sjoegren's syndrome” (priority 2000, published 2003).

Tests used:
[1] = Toxicity: maximum tolerated dose with an intravenous injection; conditions: mouse, in vivo, mice
Method: The toxicity of the compound represented by formula (I), (IA) or (Ia) of the present invention is very low and it was confirmed that it is sufficiently safe as a medicament. For example, a maximum tolerated dose with an intravenous injection using the compound represented by formula (Ia) of the present invention is 30 mg/kg in mice.

[2] = test system: NFS/sld female mice (thymic gland extracted on the 3rd day after birth; Sjögren's syndrome model); test: Laesio score by tissue findings of target organs in model mouse of Sjögren's syndrome (standard of White and Casarett); format: in vivo; conditions: 5 μg/kg/day s.c., 3 to 8 week age
Method: (§1) NFS/sld female mice of which thymic gland have been extracted on the 3rd day after the birth have Sjögren's syndrome after 4 weeks (Journal of Immunology, 153, 2769 (1994)). The compound represented by formula (la) of the present invention was subcutaneously administered once per day (5 μg/kg/day) to the mice from 3 week age to 8 week age which were immediately before histologic grand disorder was observed. The experiment was carried out for 3 non-administered groups (pathologic control) and 5 administered groups. In the 8th week, a stimulating agent (0.5 mg/kg pilocarpine hydrochloride) was intraperitoneally administered, and an amount of salivary gland liquid and an amount of lacrimal gland liquid were measured and evaluation was carried out by tissue findings.
The score is improved at a factor of ⅓ to ½ in each gland. The score was obtained based on the standard of White and Casarett (Journal of Immunology, 112, 178 (1974)).

[3] = test system: NFS/sld female mice (thymic gland extracted on the 3rd day after birth; Sjögren's syndrome model); test: Gland liquid secretion after pilocarpine stimulation in model mouse of naturally crisis Sjögren's syndrome; format: in vivo; conditions: 5 μg/kg/day s.c. once per day from 3 to 8 week age; 8th week, 0.5 mg/kg pilocarpine hydrochloride i.p.; measured for 35 minutes at 5 minute intervals
Method: as §1
Tables 1 and 2 show amounts of gland liquids (salivary gland secretory liquid and lacrimal gland secretory liquid) as cumulative rates (AUC) which measured for 35 minutes at the interval of 5 minutes after the administration of the stimulating agent.

## C[C@H]1CC(=N)N[C@@H]2[C@H](Cl)[C@@H]21 [formula (Ia), (+)-trans-3-imino-5-methyl-7-chloro-2-azabicyclo[4.1.0]heptane]
[1]
  MTD: 30 mg/kg
[2]; each gland, score by standard of White and Casarett
  laesio score improved at a factor of (versus non-administered group): ⅓ to ½
[2]; submaxillary salivary gland, sublingual gland, parotid gland, lacrimal gland, FIG. 1
  inhibition effect on laesio for each target organ: significant inhibition effects on laesio
[3]
  Lacrimal gland secretory liquid after administration of stimulating agent AUC0-35 minutes: 0.798 mm/animal weight (g)
  Salivary gland secretory liquid after administration of stimulating agent AUC0-35 minutes: 15.8 μl/animal weight (g)
